Assay results as given in the supplement of paper PMC5908809.

Legend:
[1] = test system: normal NK cells expanded with K562-aAPC; assay: drug sensitivity score (DSS) (DSS units); higher = more sensitive; extreme values may be limits of the assay; conditions: 72 h; IL-2 2.5 ng/mL
Method: (§1)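 Drug sensitivity and resistance testing on K562-aAPC-expanded normal NK cells: 5 concentrations (10-fold steps over a 10,000-fold range), 72 h at 37 °C, viability by CellTiter-Glo normalised to DMSO and benzethonium chloride controls; DSS from the fitted curve.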

NK-YS (IL-2 2.5 ng/mL) [2] = assay: as above; conditions: 72 h
YT (IL-2 2.5 ng/mL) [3] = assay: as above; conditions: 72 h
KAI3 (IL-2 2.5 ng/mL) [4] = assay: as above; conditions: 72 h
NKL (IL-2 2.5 ng/mL) [5] = assay: as above; conditions: 72 h
[6] = test system: normal primary NK cells, pool 1 (3 donors) (IL-2 2.5 ng/mL); assay: as above; conditions: 72 h
DERL-7 (IL-2 2.5 ng/mL) [7] = assay: as above; conditions: 72 h
[8] = test system: normal primary NK cells, pool 3 (3 donors) (IL-2 2.5 ng/mL); assay: as above; conditions: 72 h
NK-92 (IL-2 2.5 ng/mL) [9] = assay: as above; conditions: 72 h
SNK-6 (IL-2 2.5 ng/mL) [10] = assay: as above; conditions: 72 h
[11] = test system: normal primary NK cells, pool 2 (3 donors) (IL-2 2.5 ng/mL); assay: as above; conditions: 72 h
[12] = test system: normal primary NK cells, pool 1 (3 donors), resting (IL-2 0 ng/mL); assay: as above; conditions: 72 h
KHYG-1 (IL-2 2.5 ng/mL) [13] = assay: as above; conditions: 72 h
IMC-1 (IL-2 20 ng/mL) [14] = assay: as above; conditions: 72 h
NK-YS (IL-2 2.5 ng/mL) [15] = assay: percent inhibition of viability; higher = more inhibition; conditions: 72 h
YT (IL-2 2.5 ng/mL) [16] = assay: as above; conditions: 72 h
KAI3 (IL-2 2.5 ng/mL) [17] = assay: as above; conditions: 72 h
NKL (IL-2 2.5 ng/mL) [18] = assay: as above; conditions: 72 h
[19] = test system: normal primary NK cells, pool 1 (3 donors) (IL-2 2.5 ng/mL); assay: as above; conditions: 72 h
DERL-7 (IL-2 2.5 ng/mL) [20] = assay: as above; conditions: 72 h
[21] = test system: normal primary NK cells, pool 3 (3 donors) (IL-2 2.5 ng/mL); assay: as above; conditions: 72 h
NK-92 (IL-2 2.5 ng/mL) [22] = assay: as above; conditions: 72 h
SNK-6 (IL-2 2.5 ng/mL) [23] = assay: as above; conditions: 72 h
[24] = test system: normal primary NK cells, pool 2 (3 donors) (IL-2 2.5 ng/mL); assay: as above; conditions: 72 h
[25] = test system: normal primary NK cells, pool 1 (3 donors), resting (IL-2 0 ng/mL); assay: as above; conditions: 72 h
KHYG-1 (IL-2 2.5 ng/mL) [26] = assay: as above; conditions: 72 h
IMC-1 (IL-2 20 ng/mL) [27] = assay: as above; conditions: 72 h
[28] = test system: normal NK cells expanded with K562-aAPC; assay: as above; conditions: 72 h, IL-2 2.5 ng/mL
Method: as §1

CC1(C)CNc2cc(NC(=O)c3cccnc3NCc3ccncc3)ccc21 [Motesanib] (max concentration tested 10000 nM)
Conditions | drug sensitivity score
DERL-7 (IL-2 2.5 ng/mL) [7] | 0
IMC-1 (IL-2 20 ng/mL) [14] | 0.85
KAI3 (IL-2 2.5 ng/mL) [4] | 1.11
KHYG-1 (IL-2 2.5 ng/mL) [13] | 0
NK-92 (IL-2 2.5 ng/mL) [9] | 3.26
NK-YS (IL-2 2.5 ng/mL) [2] | 0.73
NKL (IL-2 2.5 ng/mL) [5] | 3.62
SNK-6 (IL-2 2.5 ng/mL) [10] | 0
YT (IL-2 2.5 ng/mL) [3] | 0.65
[1] | 0.32
[6] | 0
[8] | 0
[11] | 0
[12] | 0

percent inhibition of viability [%]
Conditions | 1 nM | 10 nM | 100 nM | 1000 nM | 10000 nM
DERL-7 (IL-2 2.5 ng/mL) [20] | 8.61 | 2.19 | 10.7 | -4.45 | -7.84
IMC-1 (IL-2 20 ng/mL) [27] | -10.7 | -4.04 | -2.1 | 5 | 16.6
KAI3 (IL-2 2.5 ng/mL) [17] | -8.29 | -1.63 | -3.65 | 2.07 | 23.2
KHYG-1 (IL-2 2.5 ng/mL) [26] | -8.69 | -5.06 | -3.55 | 8.47 | 9.44
NK-92 (IL-2 2.5 ng/mL) [22] | 5.17 | 2.14 | 10.4 | 20.8 | 17.9
NK-YS (IL-2 2.5 ng/mL) [15] | -4.47 | -3.14 | -5.16 | 6.4 | 15
NKL (IL-2 2.5 ng/mL) [18] | -8.65 | -10.7 | -6.54 | 20 | 30.4
SNK-6 (IL-2 2.5 ng/mL) [23] | -15.2 | -22.6 | -22.4 | -32.4 | -29.5
YT (IL-2 2.5 ng/mL) [16] | -3.76 | -2.12 | -1.24 | 6.34 | 14.4
[19] | -3.57 | 3.71 | 11 | 2.82 | -3.82
[21] | -2.89 | 5.36 | 3.67 | 3.63 | 9.45
[24] | -7.61 | 1.62 | 3.62 | 1.34 | 2.65
[25] | 4.22 | 16.2 | 15.4 | 16.6 | 11.9
[28] | -5.87 | -5.96 | -6.1 | 8.26 | 11.9

Cc1nc(NC(=O)N2CCC[C@H]2C(N)=O)sc1-c1ccnc(C(C)(C)C(F)(F)F)c1 [Alpelisib] (max concentration tested 2500 nM)
Conditions | drug sensitivity score
DERL-7 (IL-2 2.5 ng/mL) [7] | 0.82
IMC-1 (IL-2 20 ng/mL) [14] | 0
KAI3 (IL-2 2.5 ng/mL) [4] | 2.35
KHYG-1 (IL-2 2.5 ng/mL) [13] | 0
NK-92 (IL-2 2.5 ng/mL) [9] | 0.74
NK-YS (IL-2 2.5 ng/mL) [2] | 0.18
NKL (IL-2 2.5 ng/mL) [5] | 0.2
SNK-6 (IL-2 2.5 ng/mL) [10] | 3.22
YT (IL-2 2.5 ng/mL) [3] | 0.26
[1] | 1.85
[6] | 0
[8] | 0
[11] | 0.14
[12] | 0.03

percent inhibition of viability [%]
Conditions | 0.25 nM | 2.5 nM | 25 nM | 250 nM | 2500 nM
DERL-7 (IL-2 2.5 ng/mL) [20] | -4.58 | -9.56 | -0.97 | -2.79 | 25.6
IMC-1 (IL-2 20 ng/mL) [27] | 3.85 | 3.43 | 5.77 | 4.62 | 5.3
KAI3 (IL-2 2.5 ng/mL) [17] | 6.58 | 6.32 | 4.01 | 8.23 | 30.4
KHYG-1 (IL-2 2.5 ng/mL) [26] | -0.82 | 0.62 | 4.26 | 2.48 | 8.78
NK-92 (IL-2 2.5 ng/mL) [22] | -1.19 | 0.59 | 11.2 | 7.16 | 16.2
NK-YS (IL-2 2.5 ng/mL) [15] | -0.06 | -1.74 | 4.37 | 2.5 | 12.7
NKL (IL-2 2.5 ng/mL) [18] | -4.18 | 0.03 | 10.1 | 5.23 | 12.8
SNK-6 (IL-2 2.5 ng/mL) [23] | -6.11 | 8.58 | 10.5 | 15.4 | 29
YT (IL-2 2.5 ng/mL) [16] | -0.82 | 0.14 | 1.96 | 2.35 | 13
[19] | -6.99 | -1.42 | -4.27 | 3.43 | 6.48
[21] | -7.64 | -5.69 | -6.05 | 0.32 | 2.93
[24] | -4.3 | -1.23 | 0.06 | 3.89 | 11.4
[25] | -10.5 | 5.01 | -8.93 | 6.1 | 10.3
[28] | 0.72 | 1.85 | -0.5 | 3.19 | 30.6
